Key:
spores of B. atrophaeus = format: cell-based, Bacillus atrophaeus
VACV = test system: VACV; set-up: species or system Vaccinia virus
Pixuna virus (PIXV) = format: cell-based; conditions: screening, FIG. 1; guanidium thiocyanate at 3.5 M
P. aeruginosa = test system: P. aeruginosa; set-up: species or system Pseudomonas aeruginosa
B. atrophaeus endospores = test system: B. atrophaeus endospores; set-up: species or system Bacillus atrophaeus

## OO [hydrogen peroxide]
Spores of B. atrophaeus
  killing / inactivating effect on spores: did not completely kill all of the spores

## CC(=O)OO [peracetic acid]
VACV
  ELISA sensitivity for VACV, of untreated controls: ~50%

## N#CS.N=C(N)N [Guanidium thiocyanate, guanidium thiocyanate]
Spores of B. atrophaeus
  killing / inactivating effect on spores: little inactivating effect
Pixuna virus (PIXV)
  inactivating effect on PIXV: little inactivating effect

## cupric ascorbate
P. aeruginosa
  ELISA sensitivity for vegetative bacteria, of untreated controls: 80-90%
B. atrophaeus endospores
  ELISA sensitivity for spores, of untreated controls: 80-90%

## O=CCCCC=O [glutaraldehyde]
Spores of B. atrophaeus
  killing / inactivating effect on spores: did not completely kill all of the spores
